Experimental data as given in US7989642B2, “Process for producing powdered compositions containing highly unsaturated fatty acid esters of ascorbic acid and powdered compositions containing the esters” (Suntory Holdings Limited, priority 2003, dated 2011).

Assay: Test for the stability against oxidation of arachidonic acid moiety (storage at 37° C., humidity 12%, gas chromatography of non-oxidized arachidonic acid)
Type: physicochemical
Conditions: stored at 37° C.
Procedure: The resulting microcapsulated powder of 6-O-arachidonoyl-ascorbate was left in the air at 37° C. and a humidity of 12% for 30 days to determine the stability of the powder against oxidation (See, Example 4 below). During the 30-day period, samples were taken at predetermined intervals and were hydrolyzed into methyl arachidonate, which in turn was subjected to gas chromatography to determine the amount of non-oxidized arachidonic acid. As shown, the stability of any polysaccharides used was improved by powdering. The increase in the stability against oxidation was particularly significant in gum Arabic and soybean polysaccharide.
240 mg of each powder product (microcapsule) obtained in each example was placed in a flat bottom glass container (1.5 cm inner diameter, 3 cm high). Using an aqueous solution of lithium chloride, the humidity inside the container was maintained at 12% and the powder was stored at 37° C. The cup was taken out at predetermined intervals and the 6-O-arachidonoyl-ascorbate encapsulated in the microcapsules was hydrolyzed, followed by esterification with methyl groups. The amount of non-oxidized arachidonic acid was determined by gas chromatography (GC-14B, manufactured by SHIMADZU CORP.). The samples were analyzed using methyl myristate as an internal standard. […]

| Molecule | proportion of the arachidonic acid left unoxidized (after 30 days, relative to Day 0) | disappearance of non-oxidized arachidonic acid |
| --- | --- | --- |
| 6-O-arachidonoyl-ascorbate | 30% | – |
| CCCCC/C=C\C/C=C\C/C=C\C/C=C\CCCC(=O)O [non-capsulated arachidonic acid, arachidonic acid] | – | disappeared in a few hours |
